Assays:
[1] = test system: human ovarian cancer cell line Ovcar3; test: Wound healing (scratch) assay, Ovcar3; type: cell-based; set-up: key: successful (+); unsuccessful (−) inhibition of cell migration; conditions: 10X IC50: 48 (240 nM), 55 (1000 nM), 60 (2550 nM); 24 and 48 h
Experimental: (§1) The human ovarian cancer cell lines Ovcar3 and IGROV were grown in M5 media. The colon cell lines HT 29 and HCT 116 were cultivated in DMEM containing 10% FCS in a humidified environment at 37° C. Myeloma cell lines CAG (obtained from The Myeloma Institute for Research and Therapy, University of Arkansas) and RPMI8226 as well as lymphoma cell line RL were maintained at RPMI1640 medium containing 10% FCS. All cell lines were acquired from the ATCC if not otherwise stated.
(§2) The tumor cells were seeded into 24-multiwell plates (Becton-Dickinson) and cultivated until the cells formed a confluent monolayer. Wounds were set by horizontally scratching the monolayer with a sterile pipette tip. The cells were thereafter washed twice with Phosphate Buffered Saline (PBS) to remove detached cells. Growth media was then added containing different concentrations of the chemical compound and incubated at 37° C. […] The cells were photographed at the beginning of the experiment and after 24 and 48 h to assess the progression of cell migration into the wound.

[2] = Mouse blood plasma stability; conditions: test period one hour
Experimental: The biological evaluation of the compounds (in terms of their ability to inhibit cell migration) was accomplished in a Boyden chamber cell migration assay. In this assay, mouse breast tumor cells (4T1 cells) or endothelial cells (HUVECs) are seeded on the upper chamber of a transwell insert. Growth factor-containing serum is added to the lower chamber.
In anticipation of subsequent in vivo evaluation of these compounds and others, preliminary metabolic stability studies were carried out. […] As a test of the ‘deactivation hypothesis’, the hydrolysis product of macrolactone 48 was prepared (Scheme 27) and tested for its activity against tumor cell migration.

HT29 = test: Cell proliferation and viability assay (XTT), HT29; type: cell-based, human; conditions: 72 h in total, no morphological sign of apoptosis or cell death
Experimental: (§3) Cell proliferation and viability measurement were assessed by a colorimetric assay using sodium 39-(phenylaminocarbonyl)-3,4-tetrazolium-bis(4-methoxy-6-nitro) benzene sulfonic acid hydrate (XTT, Sigma, St. Louis, Mo.), and phenazine methosulphate (PMS, Sigma, St. Louis, Mo.). Cells from indicated lines were plated at 5˜10×10×10^3/well in 96 well plates in the presence of different concentration of compounds for 52 hrs. Then 50 μL of XTT/PMS mixture was added to each well and incubated for an additional 20 hrs at 37° C. Plate absorbance was measured directly at optical density of 490 nm (reference wavelength at 650 nm) in an ELISA reader (Thermo Max Microplate Reader, Molecular Devices, CA). The data was expressed as the mean of readings obtained in wells with treatment with subtraction of the reading with vehicle control. The total metabolic activity, which correspond to the number of living cells directly correlate to the amount of orange formazan formed in a cell. The result is expressed as percentage of the control.

[3] = test system: human breast cancer cell line MDA MB435; test: Wound healing (scratch) assay, MDA MB435; type: cell-based; set-up: key: successful (+); unsuccessful (−) inhibition of cell migration; conditions: 10X IC50: 48 (240 nM), 55 (1000 nM), 60 (2550 nM); 24 and 48 h
Experimental: as §2

Ovcar4 = test: Cell proliferation and viability assay (XTT), Ovcar4; type: cell-based, human; conditions: 72 h in total
Experimental: as §3

[4] = test system: mouse breast tumor cells (4T1 cells); test: Boyden chamber cell migration assay, 4T1; type: cell-based; conditions: 4T1 tumor cells, 6-8 hours; read-out: IC50 value, chamber cell migration assay
SKOV = test: Cell proliferation and viability assay (XTT), SKOV; type: cell-based, human; conditions: 72 h in total, no morphological sign of apoptosis or cell death
Experimental: as §3

Ovcar3 = test: Cell proliferation and viability assay (XTT), Ovcar3; type: cell-based, human; conditions: 72 h in total
Experimental: as §3

[5] = test system: human colon cancer cell line HT 29; test: Wound healing (scratch) assay, HT 29; type: cell-based; set-up: key: successful (+); unsuccessful (−) inhibition of cell migration; conditions: 10X IC50: 48 (240 nM), 55 (1000 nM), 60 (2550 nM); 24 and 48 h
Experimental: as §1, §2

[6] = test system: human ovarian tumor cell line OVCAR3; test: In vivo metastatic ovarian xenograph model (OVCAR3 HSV-TK/eGFP/FLuc); set-up: species or system mouse
From the text: The human ovarian tumor cell line OVCAR3 was transduced with a triple fusion gene HSV-TK/eGFP/FLuc, expressing thymidine kinase, enhanced green fluorescence protein and firefly luciferase. Whole animal imaging by luciferase bioluminescence (FIGS. 7A & B), allowed identification and quantification of disseminated tumor. We quantified the tumor burden in each organ, by sacrificing the mouse shortly after luciferin injecting and imaging of the dissected organs (lung, liver and spleen) (FIG. 8). In all instances tumor engraftment was initiated with 1-5×10^7 cells and the recipients received 3 Gy irradiation 10 days before tumor engraftment. These tumor cells generated bulky omental metastases with diffuse microscopic peritoneal carcinomatosis causing ascites (FIG. 9), significant pleural effusion with diffuse macroscopic peritoneal carcinomatosis and liver, lung and paraaortic metastases.
Treatment was initiated once primary tumor was well established. Animals were imaged at weekly intervals to monitor tumor growth and location of metastases (imaging sensitivity 200-500 cells).

colon cell line HCT 116 = test: Wound healing (scratch) assay, HCT 116; type: cell-based, human; set-up: key: successful (+); unsuccessful (−) inhibition of cell migration; conditions: 10X IC50: 48 (240 nM), 55 (1000 nM), 60 (2550 nM); 24 and 48 h
Experimental: as §1, §2

[7] = test system: human ovarian cancer cell line IGROV; test: Wound healing (scratch) assay, IGROV; type: cell-based; set-up: key: successful (+); unsuccessful (−) inhibition of cell migration; conditions: 10X IC50: 48 (240 nM), 55 (1000 nM), 60 (2550 nM); 24 and 48 h
Experimental: as §1, §2

HCT116 = test: Cell proliferation and viability assay (XTT), HCT116; type: cell-based, human; conditions: 72 h in total
Experimental: as §3

[8] = test system: human ovarian cancer cells Ovcar3; test: Immunofluorescence staining of treated Ovcar3 cells; type: cell-based; conditions: 500 nM
Experimental: (§4) For the microarray comparison (Affymetrix chip -AU133 plus) human ovarian cancer cells (Ovcar3) and human colon cancer cells (HT29) were treated with 500 nM DMC (48) for 6 h and 18 h or left untreated. A large panel of up and down regulated genes were detected including a broad array of motility, cell shape and chemotaxis genes (FIG. 17).
Ovcar3 cells in exponential growth phase were seeded into 24 well plates at 2×10^4/ml in the presence of 500 nM of DMC (48). […] At the time of staining, cells were pre-blocked at room temperature in PBS with 3% BSA and 0.2% Na-azide. After washing, the cells were then incubated with indicated monoclonal antibody (FIG. 18), diluted 1:200 in 1.5% blocking serum, at 37° C. Cells were washed again and incubated with anti-mouse-Alexa red secondary antibody in the dark at 37° C. Cells were then counter-stained with 4,6-diamidino-2-phenylindole (DAPI) at 0.2 μg/ml PBS.

CAG cells = test: CAG cell proliferation assay (XTT); type: cell-based, human; conditions: printed in the legend on CAG cell proliferation; read-out: IC50 (legend of FIG. 3)
Experimental: In the last 20 hours, sodium 3′-[1-(phenylamino-carbonyl)-3,4-tetrazolium]-bis(4-methoxy-6-nitro) benzene sulfonic acid hydrate (XTT) was added and optical absorbance at 490 nm were measured. As reference wavelength 650 nm was used. […] The result was expressed as percentage of the control.

[9] = test system: human colon cancer cells (HT29); test: Microarray analysis of treated HT29 cells; type: cell-based; conditions: 500 nM, 6 h and 18 h
Experimental: as §4

IGROV = test: Cell proliferation and viability assay (XTT), IGROV; type: cell-based, human; conditions: 72 h in total, no morphological sign of apoptosis or cell death
Experimental: as §3

[10] = test system: human breast cancer cell line MDA MB435; test: Chamber cell migration assay, MDA MB435; type: cell-based; conditions: highly metastatic human breast cancer cell line
Experimental: Cell migrations were assayed with 8 μm of microporous 6.5-mm transwell plates (Corning). 200 μl of 2×10^5 cells in serum-free RPMI1640 medium containing 0.5% BSA were added to the upper chamber and 600 μl of medium with 10% fetal bovine serum was added to the lower chamber. […] Cells migrated to the lower wells were collected and counted for liquid tumors, solid tumors were processed as previously described.^28 Data shown are representative of at least three experiments.

[11] = 40 mg/kg three times a week for 10 treatments
[12] = daily injection of 40 mg/kg i.p.

## CO[C@H]1/C=C/CCCCC(=O)OC/C(C)=C\[C@@H](C)[C@@H]1O [Compound 48, Macrolactone]
[1]
  inhibition of cell migration, wound healing assay, Ovcar3: +
[2]
  metabolic stability in mouse blood plasma: hydrolyzed rapidly
HT29
  effect on proliferation, HT29: inhibition of proliferation
[3]
  inhibition of cell migration, wound healing assay, MDA MB435: +
Ovcar4
  effect on proliferation, Ovcar4: uninfluenced
[4]
  IC50: 24 nM
SKOV
  effect on proliferation, SKOV: inhibition of proliferation
Ovcar3
  effect on proliferation, Ovcar3: uninfluenced
[5]
  inhibition of cell migration, wound healing assay, HT 29: +
[6]; [11]
  reduction of metastasis for liver: 80%
  reduction of metastasis in lung and spleen: highly significant reduction
[6]; FIG. 9, 4 out of 4 control mice had ascitis
  treated mice that had ascitis: 1 out of 4
[6]; [12]
  survival: increase of survival
  total tumor mass: reduction of the total tumor mass
[6]; daily injection of 40 mg/kg i.p., all control mice developed ascites
  mice with inhibition of ascitis at the endpoint: 3 out of 4
Colon cell line HCT 116
  inhibition of cell migration, wound healing assay, HCT 116: +
[7]
  inhibition of cell migration, wound healing assay, IGROV: +
HCT116
  effect on proliferation, HCT116: uninfluenced
[8]
  Integrin α2 and CD44, immunofluorescent microscopy: Upregulated
[8]; after 6 h or 24 h
  β-tubulin, immunofluorescent microscopy: did not show any modulations
CAG cells
  IC50: 24 nM
[9]
  E-cadherin expression, micro array: upregulation
IGROV
  effect on proliferation, IGROV: inhibition of proliferation
[10]
  response of MDA MB435 to the compound: responded only slightly

From patent US8957056B2, “Migrastatin analogs in the treatment of cancer” (Sloan-Kettering Instiute for Cancer Research, priority 2004, dated 2015)
